Experimental data taken from US9943500B2, “Methods of treating topical microbial infections” (LUODA PHARMA PTY LIMITED, priority 2013, dated 2018).
Converted amounts (≈) assume the structure as drawn.

How the values were obtained:
Staphylococcus aureus = experiment: Skin wound infection model in mice, topical ointment (Example 5); type: in vivo; settings: LP1369 ointment 20 mg/g, 11 treatments
Text: Preliminary studies prior to the conduct to the current study established a new method of skin infection arising from a detailed study of the models mentioned above. Briefly, study mice are anaesthetised, a patch of dorsal skin is clipped to reveal the skin and a circular area of skin is removed with a hand held punch, leaving a wound on the dorsum with a central cavity. The wound is infected with a known number of the challenge organism. Approximately four to six hours after infection, the wound is either treated topically with a vehicle formulation or an active formulation. The infected skin wound is retreated every 12 hours for a total of 11 treatments. Mice are humanely euthanased, the area of the original infected wound is dissected and removed and its bacterial content quantified by standard microbiologic tests. In this way, the change in bacterial concentration due to treatment with the active formulation can be readily determined by examining the reduction in bacterial burden compared with the vehicle control.
Fresh cultures of bacteria were grown on Sheep Blood Agar at 37° C. for 16-18 hours. […] The density of the suspension was checked by measuring absorbance at 600 nm, using a spectrophotometer with saline as a blank, to confirm the target density at a reading of approximately 0.100, consistent with a bacterial density of 2.5×10^8 CFU/ml. […]

[1] = test system: methicillin-sensitive and methicillin-resistant strains of Staphylococcus; experiment: Minimum bactericidal concentration determination, Staphylococcus isolates (Example 1)
Description: Following determination of the MIC using the 96 well MIC plate, a variation of the drop plate method was used to determine minimum bactericidal concentration (MBC) for each of the test compounds. These were analysed using samples taken from the MIC plate following incubation. […] Each concentration was pipetted in duplicate with duplicates being pipetted on an inner ring of drops. The plates were incubated at 37° C. overnight and assessed the following day for growth. The MBC was defined as the concentration at which 99.9% of colonies were eradicated, which was visually assessed by a lack of growth on the agar where the drop was placed.

[2] = test system: 51 Australian bovine mastitis isolates, primarily S. aureus, S. agalactiae and S. uberis; experiment: Minimum inhibitory concentration assay, bovine mastitis isolates (Example 3); type: cell-based; settings: all 51 isolates; read-out: MIC90
Text: Fifty-one dairy bovine mastitis isolates, encompassing a variety of bacterial species, were isolated from milk samples collected from dairy farms in rural South Australia by the University of Adelaide Ambulatory Clinic. Cellular morphology observed from Gram stains and catalase testing was used to differentiate Staphylococcus, Streptococcus and Corynebacterium species from Gram-negative species. Further biochemical testing including coagulase, Lancefield grouping, esculin hydrolysis and CAMP tests were used to identify the isolates to species level. Where biochemical test results were not definitive in identifying species, amplification and sequencing of the 16S ribosomal RNA gene was used to confirm the identity of the isolates.
Minimum inhibitory concentration tests were performed in the manner outlined by the CLSI (CLSI 2012). Test compounds were dispensed into a 96-well microtitre tray containing 90 μl of CAMHB in 90 μl volumes and serial diluted to obtain a concentration gradient ranging from 128 μg/ml to 0.25 μg/ml (see FIG. 24). For Streptococcus species, CAMHB was replaced with a CAMHB supplement with 4% lysed-sheep blood (4% LSB:CAMHB). 4% LSB:CAMHB was prepared by mixing 5 ml sheep blood to 5 ml milliQ water, and repeated freezing at −20° C. and thawing, followed by centrifuged for 20 min at 7000 rpm. 7 ml of the supernatant was removed and added to 93 mL of CAMB.
Bacterial suspensions were prepared by emulsifying fresh colonies obtained from an overnight culture on Sheep Blood Agar (SBA) in 4 mls of 9.1 g/l physiological saline to an optical density read at 600 nm (OD600 nm) between 1.00 and 1.20. Standardised bacterial suspensions were diluted 1:10 in physiological saline and dispensed into all wells, excluding the negative control wells, in 10 μL volumes giving a final concentration of between 4×10^5 and 5×10^5 CFU/mL in each well. 96-well microtitre trays were incubated for 24 hours at 37° C. in 5% CO2 and then assessed both visually and using OD readings from a microplate reader at a wavelength of 600 nm. These tests were performed in duplicate and repeated if discrepancies in MIC values were observed between replicates.
The minimum inhibitory concentration (MIC) was determined to be the lowest concentration of antibiotic that prevented growth of bacteria both visually and using OD readings. MIC values were collated and used to determine the lowest concentration of each compound effective against 50% and 90% of isolates, known as the MIC50 and MIC90 respectively. These values as well as the range of MIC values were then used for direct comparisons between test compounds and for general comparisons with ampicillin.

MRSA 9 = experiment: Macrodilution time-kill assay (viable counts); settings: 24 hours; all concentrations tested
Description: Due to the detection limit of the OD measurements, the time-kill assays were also performed in macrodilution. In 15 mL tubes, 9 mL volumes of the test compounds in CAMHB were prepared at one, four and eight times the MIC concentration and 9 mL volumes of ampicillin were prepared in CAMHB at one and four times the MIC. 1 mL of a 4 to 5×10^6 bacterial suspension (as prepared for MIC testing) was added to each of the tubes as well as a growth control tube containing only 9 mL of CAMHB. These tubes were incubated at 37° C. in an orbital shaker rotating at 100 rpm for 24 hours. At 0, 1, 4, 8, 12 and 24 hours after addition of the bacteria, 100 μL samples were removed from each tube and serial diluted in 9.1 g/L saline solution. The dilutions were then plated in duplicate onto plate count agar and incubated for 24 hours at 37° C. After incubation, viable counts were obtained from the number of colonies visible on the agar and these were used to calculate the number of CFU/mL at each time point. For the macrodilution time-kill analysis, only the ATCC 49775 reference strain and MRSA 9 were assessed in order to further investigate the antibacterial activity against methicillin-resistant strains. These macrodilution time-kill assays were independently repeated and bactericidal activity was defined as a ≥3 log decrease in the number of CFU/mL.

CC[C@@H](C(=O)[C@@H](C)[C@@H](O)[C@H](C)CCc1ccc(C)c(O)c1C(=O)O)[C@H]1O[C@](CC)([C@H]2CC[C@](O)(CC)[C@H](C)O2)C[C@@H]1C [LP 1369, Lasalocid]
decrease in bacterial load compared to vehicle control mice (Staphylococcus aureus): statistically significant | reduction of the bacterial population (Staphylococcus aureus; every 12 hours, versus vehicle): greater than 99% | bactericidal activity (MBC testing) ([1]; lower concentrations): some bactericidal activity in lower concentrations | MBC50 rank among test compounds ([1]; methicillin-sensitive isolates): lowest MBC50 values | strain type for which bactericidal activity was more consistent ([1]; methicillin-sensitive versus methicillin-resistant strains): more consistently for methicillin-sensitive strains | MIC90 [2]: 4 µg/mL (≈ 6.77 µM) | decrease in the number of viable bacteria (MRSA 9): < 3 log10
